Test results: patent publication US20260345615A1, “COMPOSITIONS COMPRISING SOTORASIB” (AMGEN INC., priority 2023, published 2026)
Values belong to the compound of their own block, whether it stands above or below them.

Assays:
[1] = Stability testing: dissolution (FaSSIF), Example 2; format: physicochemical; settings: FaSSIF pH 6.50; all crystalline samples, first two timepoints of amorphous samples
Method: (§1) Stability testing of the three ASDs prepared in Example 1 was conducted over 2 months (T=0, 1 month and 2 months) using XRPD, TGA, DSC, PSD, and dissolution tests (FaSSIF and biorelevant media).
(§2) Stability Testing: ASD samples were stored in low density polyethylene (LPDE) bags placed in a heat-sealed aluminum foil pouch along with desiccant. Foil pouches were then placed into a stability chamber at 25 °C/60% RH and taken out for stability testing (XRPD, TGA, DSC PSD, dissolution and biorelevant dissolution) at specified timepoints.
Dissolution (FaSSIF): The dissolution properties of ASDs 1-3 and the control spray-dried sotorasib were assessed as described herein. 5 mg of amorphous sotorasib (control), 5 mg of crystalline sotorasib (control), and 20 mg of ASDs1-3 as listed in Table 1 were added to separate 20 mL vials of FaSSIF (pH 6.50) and samples were collected at 5, 15, 20, 30, 60, 120, 180 min timepoints. […] The mobile phases were A:Water with 0.1% trifluoroacetic acid and B:Acetonitile with 0.1% trifluoroacetic acid. The method was a reverse gradient of 5% B 95% A to 98% B 2% A over 15 minutes using a wavelength 254 nm for detection and quantification.

KRAS^G12C = settings: role: inhibitor, background statement, cited from earlier work
[2] = Stability testing: XRPD, Example 2; format: physicochemical
Method: as §1, §2
X-Ray Powder Diffraction (XRPD) Analysis: XRPD data was obtained using a Panalytical PW3040-PRO diffractometer. Samples were scanned at room temperature (25 °C) in continuous mode from 3-45 degrees (2θ) with step size of 0.03 degrees at 45 kV and 40 mA with CuKα radiation (1.54 A). The incident beam path was equipped with a primary soller slit 0.04 rad and a divergence slit 0.38 mm, in a fixed slit mode. Samples were prepared on a low background sample holder and placed on a spinning stage with a rotation time of 4 sec.

[3] = Stability testing: particle size distribution (PSD), Example 2; format: physicochemical
Method: as §1, §2
Particle Size Distribution (PSD): Analysis of each of the samples was obtained using a Sympatec Helos laser diffraction analyzer. The results are shown below (D10, D50, and D90 values).

[4] = Stability testing: DSC, Tg, Example 2; format: physicochemical
Method: as §1, §2
Differential Scanning Calorimetry (DSC) Analysis: DSC data is collected using a TA Instruments Q2500 DSC. Approximately, 2-6 mg of the sample was placed in a Tzero aluminum pan and sealed with Tzero lid. Method Log consist of equilibrating to −20 °C, holding Isothermal for 1.00 min, Ramping 10.00 °C/min to 160.0 °C, holding isothermal for 1.00 min, bringing down to Ramp of 10.00 °C/min to −20.00 °C, holding isothermal for 1.00 min, ramping 10.00 °C/min to 200 °C, marking end of cycle. Conditions were done under a nitrogen purge of about 50 mL/min.

[5] = Particle size distribution (laser diffraction), Example 1; format: physicochemical; settings: Example 1, Table 1
Text: Particle Size Distribution (PSD): Analysis of each of the samples was obtained using a Sympatec Helos laser diffraction analyzer. The results of the particle size analysis are shown in Table 1 (D10, D50, and D90 values).

[6] = Stability testing: Thermal Gravimetric analysis (TGA), Example 2; format: physicochemical
Method: as §1, §2
Thermal Gravimetric analysis (TGA): TGA was performed to evaluate presence for residual solvent and any thermal transitions which may result in weight loss. TGA was performed on a TA Instruments Discovery 550 Series analyzer at 5 °C/min from ambient temperature to 200 °C in a platinum pan under dry nitrogen at 25 ml/min. Sample size was ~2-8 mg.

solubility (samples not diluted) [1]: low solubility
Compound: C=CC(=O)N1CCN(c2nc(=O)n(-c3c(C)ccnc3C(C)C)c3nc(-c4c(O)cccc4F)c(F)cc23)[C@@H](C)C1 [crystalline sotorasib]

Compound: C=CC(=O)N1CCN(c2nc(=O)n(-c3c(C)ccnc3C(C)C)c3nc(-c4c(O)cccc4F)c(F)cc23)[C@@H](C)C1 (atropisomer, axis not shown) [Sotorasib]
activity at the target protein, atropisomers (KRAS^G12C; (M)- v. (P)-configuration): more active at the target protein than the (P)-configuration
inhibition of KRAS^G12C (KRAS^G12C): specifically and irreversibly inhibits

XRPD result ([2]; T = 0): amorphous
XRPD result ([2]; T = 1 month, 25 °C/60% RH): amorphous
XRPD result ([2]; T = 2 months, 25 °C/60% RH): amorphous
PSD result - D10 ([3]; T = 0): 0.8 μm
PSD result - D50 ([3]; T = 0): 3.6 μm
PSD result - D90 ([3]; T = 0): 13.4 μm
PSD result - D10 ([3]; T = 1 month, 25 °C/60% RH): 0.8 μm
PSD result - D50 ([3]; T = 1 month, 25 °C/60% RH): 4.2 μm
PSD result - D90 ([3]; T = 1 month, 25 °C/60% RH): 14.4 μm
PSD result - D10 ([3]; T = 2 months, 25 °C/60% RH): 0.8 μm
PSD result - D50 ([3]; T = 2 months, 25 °C/60% RH): 3.8 μm
PSD result - D90 ([3]; T = 2 months, 25 °C/60% RH): 13.5 μm
DSC result - Tg ([4]; T = 0, n1): n1: 147.7 °C
DSC result - Tg ([4]; T = 0, n2): n2: 146.9 °C
DSC result - Tg ([4]; T = 1 month, n1, 25 °C/60% RH): n1: 148.4 °C
DSC result - Tg ([4]; T = 1 month, n2, 25 °C/60% RH): n2: 148.3 °C
DSC result - Tg ([4]; T = 2 months, n1, 25 °C/60% RH): n1: 149.1 °C
DSC result - Tg ([4]; T = 2 months, n2, 25 °C/60% RH): n2: 148.6 °C
D10 [5]: <1.0 μm
D50 [5]: <4.0 μm
D90 [5]: <16 μm
TGA result (weight change) ([6]; T = 0): <1%
TGA result (weight change) ([6]; T = 1 month, 25 °C/60% RH): <1%
TGA result (weight change) ([6]; T = 2 months, 25 °C/60% RH): <1%
Compound: C=CC(=O)N1CCN(c2nc(=O)n(-c3c(C)ccnc3C(C)C)c3nc(-c4c(O)cccc4F)c(F)cc23)[C@@H](C)C1 [sotorasib amorphous]
